We go through 1 compound from patent US9808434B2, “Compound for treating cancer and diabetes” (CITY OF HOPE, priority 2011, dated 2017).

Data set [1] concerns CDK2, CDK4, cyclin A, cyclin B1, cyclin E1, p27. Description: Cell cycle regulator proteins in H358 and H520, Western-blot. Format: cell-based, human. The following applies: 24 h. The protocol: Cell or tissue proteins were extracted with cell lysis buffer (Cell Signaling Technology) and protein concentration was determined using the DC Protein Assay kit (Bio-Rad, Hercules, Calif., USA). Equal amount of proteins (˜40 μg) were loaded onto 4-15% Criterion TGX gels (Bio-Rad, Hercules, Calif.), resolved by SDS-PAGE electrophoresis, and then transferred onto nitrocellulose membranes for immunoblotting. Membranes were blocked with 5% skimmed milk in Tris-buffered saline containing 0.05% Tween 20 before incubation overnight at 4° C. with desired primary antibodies. Immuno-reactive proteins were visualized by peroxidase-labeled secondary antibodies and ECL system (Western Lightning Chemiluminescence Reagent, Perkin-Elmer, Mass., USA). Equal loading of proteins was confirmed by stripping and re-probing the membranes with either β-actin or GAPDH antibodies. Band intensities were quantified using a densitometer (Quantity One, Bio-Rad, Hercules, Calif.).
In the context of the elevation of GSTs in lung cancer, the impact of COH-SR4 on the catalytic activity of GSTs towards 1-chloro 2,4-dinitro benzene (CDNB), a model substrate used for GST activity was analyzed. GST activity towards 1-chloro 2,4-dinitro benzene (CDNB) and its inhibition by COH-SR4 was performed in 28000×g crude supernatant prepared from H1417, H1618, H520 and H358 cells. […]

The subject of the next data set is H1618. In words: Colony formation assay, H1618. Format: cell-based, human. The following applies: 1.5 μM. The protocol: Cell survival was evaluated using a standard colony-forming assay. In total, 1×10^5 cells/mL were incubated with COH-SR4 (1.5 μM or 5 μM) or elesclomol (5 μM) for 24 h, and aliquots of 50 or 100 μL were added to 60 mm size petri dishes, containing 4 mL culture medium. After 7 or 10 days, adherent colonies were fixed, stained with 0.5% methylene blue for 30 min and colonies were counted using the Innotech Alpha Imager HP (91).
(§1) The effect of COH-SR4 was first examined in a NCI panel of cancer cell lines, the results of which indicated good activity of COH-SR4 towards lung cancer (FIG. 78A). […] Values are presented as mean±SD from two separate determinations with eight replicates each (n=16) (FIG. 78B). The COH-SR4 treatment exerted a significant inhibitory effect on the survival of lung cancer cells [IC50: H1417 cells-1.2±0.2 μM, H1618 cells-1.5±0.2 μM, H358 cells-2.1±0.2 μM and H520 cells-2.4±0.3 μM]. […] Following initial screening for the anticancer activity of COH-SR4, the effect of COH-SR4 on clonogenic potential was studied. Standard colony-forming assay was performed and the colonies were counted using Innotech Alpha Imager HP. […] The effect of COH-SR4 on induction of apoptosis was further investigated. […] TUNEL assay was performed using Promega fluorescence detection kit and examined using Zeiss LSM 510 META laser-scanning fluorescence microscope with filters 520 and 620 nm. […]

A short description of data set [2]: COH-SR4 in mice serum, LC-MS/MS. Format: in vivo, mouse. The following applies: 4 mg/kg b.w. oral, alternate day, 8 weeks; blood within 2 h of final dose. The method, then: Mice (n=3 each for control and COH-SR4 treatment) were administered either 0.2 mL corn oil or 100 μg COH-SR4/0.2 mL corn oil/mice (4 mg/kg b.w.) by oral gavage on alternate days for 8 weeks. On the last day, the blood was collected within 2 h after final dosage. To 50 μL serum was added 0.5 μL 5 μg/μL 6D-SR4 standard in DMSO and 500 μL ethyl acetate. The samples were vortexed for 1 min and then spun down in a bench-top centrifuge for 2 min. Then 400 μL of the organic layer was collected, evaporated to dryness and redisolved in 500 μL methanol for analysis. After an initial concentration test, 50 μL were taken and diluted to 2 mL with methanol for final analysis. […]
COH-SR4 and 6D-SR4 were separated by HPLC using an Agilent Zorbax 0.5×150 mm C18, 5 μm column with a flow rate of 50 μL/min and a gradient of 65% B to 95% B over 4 min, then 2 min at 95% B and 1 min back to 65% B. Buffer A was 5 mM ammonium formate and buffer B was 5 mM ammonium formate in methanol. The elute from the column was introduced into an Agilent 6410 triple quadrupole tandem mass spectrometer by electrospray ionization (ESI) through a capillary maintained at 4 kV, using 6 L/min nitrogen nebulizing gas at 350° C. and 15 psi, fragmentor voltage=190 V. The following transitions were monitored in positive ion mode: 344>127.1 and 355>130.1 (collision energy=28 V), 344>161.9 and 355>164.9 (C.E.=20 V) for COH-SR4 and 6dSR4. […]

The next data set concerns lung cancer cell lines. In words: TUNEL apoptosis assay, lung cancer cell lines. The class given is cell-based, human. Conditions: 1.5 μM, 24 h. The protocol: […] Apoptosis was determined by the labeling of DNA fragments with terminal deoxynucleotidyl-transferase dUTP nick-end labeling (TUNEL) assay using Promega fluorescence apoptosis detection system, and examined using Zeiss LSM 510 META laser scanning fluorescence microscope with filters 520 and 620 nm according to the protocol described previously (91). Photographs taken at identical exposure at ×400 magnification are presented.
as §1

On to `O=C(Nc1cc(Cl)cc(Cl)c1)Nc1cc(Cl)cc(Cl)c1` [COH-SR4, 1,3-bis(3,5-dichlorophenyl) urea], for which, in data set [1], the “protein level of p27” value was “up-regulated”; the “protein levels of CDK2, CDK4, cyclin A, cyclin B1 and cyclin E1” value was “decreased the protein levels of CDK2, CDK4, cyclin A, cyclin B1 and cyclin E1”. In the data set with H1618, this compound displayed a colony formation of 48±9%. Moreover, in data set [2], the serum concentration came to 342 ± 44 ng/mL and the “serum concentration (equivalent)” value was determined as 1000 ± 220 nM. The “apoptosis (TUNEL)” value with lung cancer cell lines is on record as “induced apoptosis in all the lung cancer cell lines”.
